In EP0026409A1, “Combinations of active ingredients, pharmaceutical preparations, as well as their preparation” (F. HOFFMANN-LA ROCHE & CO. Aktiengesellschaft, priority 1979, dated 1981):
≈ marks a conversion by molar mass, not a printed value. Read-outs that look alike come from different tables or passages of the source. One block for each compound: values may come before it.

Experiments:
Test in all cases: In vitro activity: M.I.C. on nutrient agar plates, surface inoculation, 24 h at 37°C
Format in all cases: cell-based
Streptococcus pyogenes = conditions: S. pyogenes, Peptid or Antibiotikum alone
From the text: (§1) Es wurden konzentrierte Lösungen von Gemischen der Verbindungen der Formel I und dem Antibiotikum in den gewünschten Gewichtsverhältnissen hergestellt, die dann beliebig verdünnt wurden. Aliquote Teile der verdünnten Lösungen wurden mit einem geeigneten Nähragar in Petrischalen gemischt. Zum Vergleich wurden ähnliche Agar-Schalen hergestellt, die ausser dem Nährmedium die Verbindung I bzw. das Antibiotikum alleine enthielten. Nach Oberflächeninokulation mit den Mikroorganismen wurde 24 Stunden bei 37°C aufbewahrt und dann die minimale Hemmkonzentration (M.I.C.) bestimmt und die F.I.C.-Indexe berechnet. Die Ergebnisse unter Verwendung repräsentativer Verbindungen der Formel I, nämlich (1R)-1-(N-Sarcosyl-L-norvalyl-L-norvalylamino)-ethylphosphonsäure, und (1R)-1-(N-Methyl-L-leucyl-L-norvalyl-L-norvalylamino)-ethylphosphonsäure und repräsentativer Antibiotika, nämlich Cephalexin und D-Cycloserin, sind in den folgenden Tabellen I-III zusammengestellt..

Streptococcus faecalis = conditions: S. faecalis, Peptid or Antibiotikum alone
From the text: as §1

Proteus mirabilis = conditions: P. mirabilis, Peptid or Antibiotikum alone
From the text: as §1

Staphylococcus aureus = conditions: S. aureus, Peptid or Antibiotikum alone; for MIC: Staphylococcus aureus, 24 h
From the text: as §1

Streptococcus agalactiae = conditions: S.agalactiae, Peptid or Antibiotikum alone
From the text: as §1

Escherichia coli = conditions: E. coli, Peptid or Antibiotikum alone
From the text: as §1

[1] = system: Streptococcus dysgalactiae; conditions: S.dysgalactiae, Peptid or Antibiotikum alone
From the text: as §1

SMILES: CC1=C(C(=O)O)N2C(=O)[C@@H](NC(=O)[C@H](N)c3ccccc3)[C@H]2SC1 [Cephalexin]
M.I.C. (Streptococcus pyogenes): 8 µg/mL
MIC (Streptococcus pyogenes; Streptococcus pyogenes, 24 h): 11.3 µg/mL (≈ 32.5 µM)
MIC (Streptococcus faecalis; Enterococcus faecalis, 24 h): 128 µg/mL (≈ 368 µM)
MIC (Proteus mirabilis; Proteus mirabilis, 24 h): 22.6 µg/mL (≈ 65.1 µM)
M.I.C. (Staphylococcus aureus): 64 µg/mL
MIC (Staphylococcus aureus): 45.2 µg/mL (≈ 130 µM)

MIC (Streptococcus agalactiae; Streptococcus agalactiae, 24 h): 90.5 µg/mL (≈ 886 µM)
MIC (Escherichia coli; Escherichia coli, 24 h): 32 µg/mL (≈ 313 µM)
MIC ([1]; Streptococcus dysgalactiae, 24 h): 128 µg/mL (≈ 1250 µM)
MIC (Staphylococcus aureus; read-out: M.I.C.): 16 µg/mL (≈ 157 µM)
SMILES: N[C@@H]1CONC1=O [D-Cycloserin]

SMILES: CCC[C@H](NC(=O)CNC)C(=O)N[C@@H](CCC)C(=O)N[C@@H](C)P(=O)(O)O [(1R)-1-(N-Sarcosyl-L-norvalyl-L-norvalylamino)-ethylphosphonsäure]
M.I.C. (Streptococcus agalactiae): 45.2 µg/mL
M.I.C. (Escherichia coli): 2 µg/mL
M.I.C. (Streptococcus pyogenes): 90.5 µg/mL
M.I.C. (Streptococcus faecalis): 90.5 µg/mL
M.I.C. [1]: 2.8 µg/mL
M.I.C. (Proteus mirabilis): >128 µg/mL
M.I.C. (Staphylococcus aureus): >128 µg/mL

SMILES: CCC[C@H](NC(=O)[C@H](CC(C)C)NC)C(=O)N[C@@H](CCC)C(=O)N[C@@H](C)P(=O)(O)O [(1R)-1-(N-Methyl-L-leucyl-L-norvalyl-L-norvalylamino)-ethylphosphonsäure]
M.I.C. (Streptococcus pyogenes): >64 µg/mL
M.I.C. (Streptococcus faecalis): 2 µg/mL
M.I.C. (Staphylococcus aureus): >64 µg/mL
